The values below come from patent US20230416228A1 (Forkhead Biotherapeutics, Inc., priority 2020, published 2023).

The test addresses T1, human FOXO1 (constitutively active form Thr24Ala, Ser256Ala, Ser319Ala) (Homo sapiens, UniProt Q12778, S256A/S319A/T24A).
T1 construct: expressed in transfected cells; host or cells: HEK293 cells transfected with pcDNA3.1 plasmid
Description: FOXO1 inhibitor activity assay: cell-based transcriptional (luciferase) reporter assay in HEK293 cells. Particulars: HEK293 cells transfected with insulin response element firefly luciferase reporter, FOXO1 and Renilla luciferase; 10-point dose response 50 μM to 2.5 nM; 24 hours. As to the method:
The inhibitory activities of compounds on FOXO1 were determined by a cell-based transcriptional reporter assay. HEK293 cells were plated onto either 384-well poly-D-lysine coated plates (at 7500 cells per well) or 96-well plates (at 20000 cells per well) in low glucose Eagle's Minimum Essential Medium (EMEM) containing 1% fetal bovine serum, and incubated overnight at 37° C. and 5% CO2. […] Duplicate wells were included for each treatment condition. Cells were incubated for 24 hours at 37° C. and 5% CO2. Luciferase activities in each well were measured using Dual-Glog Luciferase Assay System (Promega) according to manufacturer's protocol and an Envision plate reader suitable for luminescence detection. Firefly luciferase activity was divided by Renilla luciferase activity to calculate a ratio for each well. The ratio in wells containing cells transfected with all 3 plasmids listed above and receiving only DMSO without compound addition was set to 100%. The ratio in wells containing cells transfected with plasmid (1), plasmid (3), and pcDNA3.1 containing the open reading frame of red fluorescent protein (instead of human FOXO1) and treated with DMSO was set to 0%. The ratio in each well receiving compound treatment was normalized and expressed as a percentage. Data were fit by 4-parameter logistic regression to determine IC50 and maximal inhibition values. Each compound was tested in a minimum of 2 independent experiments.

T1 sequence (Q12778 whole entry T24A/S256A/S319A): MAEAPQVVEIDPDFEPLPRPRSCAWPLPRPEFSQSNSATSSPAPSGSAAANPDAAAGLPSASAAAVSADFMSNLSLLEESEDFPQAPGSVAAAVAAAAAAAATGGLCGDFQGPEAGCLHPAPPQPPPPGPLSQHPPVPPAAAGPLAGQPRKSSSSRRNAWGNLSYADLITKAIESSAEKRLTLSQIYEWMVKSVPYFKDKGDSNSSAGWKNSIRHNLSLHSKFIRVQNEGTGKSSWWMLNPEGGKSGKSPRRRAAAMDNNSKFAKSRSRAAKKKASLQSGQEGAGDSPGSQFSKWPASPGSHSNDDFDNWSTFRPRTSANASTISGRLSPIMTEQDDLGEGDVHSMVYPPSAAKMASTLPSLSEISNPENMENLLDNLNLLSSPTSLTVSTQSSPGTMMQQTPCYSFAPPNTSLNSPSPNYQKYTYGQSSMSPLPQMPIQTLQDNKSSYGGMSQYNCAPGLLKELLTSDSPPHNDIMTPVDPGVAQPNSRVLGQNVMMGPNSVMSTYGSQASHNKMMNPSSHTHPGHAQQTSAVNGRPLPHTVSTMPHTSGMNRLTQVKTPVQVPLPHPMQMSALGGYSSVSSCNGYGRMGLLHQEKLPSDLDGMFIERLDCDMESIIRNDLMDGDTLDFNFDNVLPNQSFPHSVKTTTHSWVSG

Usually IC50 stands for the concentration at which inhibition is half-maximal. A low value points to higher potency. The compound `O=C(Nc1cc(-c2nc3cc(F)ccc3[nH]2)[nH]n1)c1ccc(N2CCOCC2)nc1` [Compound A-82, N-[5-(5-fluoro-1H-benzimidazol-2-yl)-1H-pyrazol-3-yl]-6-morpholino-pyridine-3-carboxamide] yielded an IC50 of less than 100 nM.
Take `O=C(Nc1cc(-c2nc3cccc(F)c3[nH]2)[nH]n1)c1ccc(N2CCC(CO)CC2)nc1` [Compound A-83, N-[5-(7-fluoro-1H-benzimidazol-2-yl)-1H-pyrazol-3-yl]-6-[4-(hydroxymethyl)-1-piperidyl]pyridine-3-carboxamide]: the IC50 is less than 100 nM.
The result for `O=C(Nc1cc(-c2nc3cccc(F)c3[nH]2)[nH]n1)c1ccc(N2CCOCC2)nc1` [Compound A-85, N-[5-(7-fluoro-1H-benzimidazol-2-yl)-1H-pyrazol-3-yl]-6-morpholino-pyridine-3-carboxamide] reads less than 100 nM; that for `O=C(Nc1cc(-c2nc3cc(Cl)ccc3[nH]2)[nH]n1)c1ccc(N2CCC(CO)CC2)nc1` [Compound A-86, N-[5-(5-chloro-1H-benzimidazol-2-yl)-1H-pyrazol-3-yl]-6-[4-(hydroxymethyl)-1-piperidyl]pyridine-3-carboxamide], more than 1000 nM.
The compound `O=C(Nc1cc(-c2nc3cc(Cl)ccc3[nH]2)[nH]n1)c1ccc(N2CCC(O)CC2)nc1` [Compound A-87, N-[5-(5-chloro-1H-benzimidazol-2-yl)-1H-pyrazol-3-yl]-6-(4-hydroxy-1-piperidyl)pyridine-3-carboxamide] came in with an IC50 of more than 1000 nM.
For `O=C(Nc1cc(-c2nc3cc(Cl)ccc3[nH]2)[nH]n1)c1ccc(N2CCOCC2)nc1` [Compound A-88, N-[5-(5-chloro-1H-benzimidazol-2-yl)-1H-pyrazol-3-yl]-6-morpholino-pyridine-3-carboxamide] the value was more than 1000 nM; for `O=C(Nc1cc(-c2nc3cc(Br)ccc3[nH]2)[nH]n1)c1ccc(N2CCC(CO)CC2)nc1` [Compound A-89, N-[5-(5-bromo-1H-benzimidazol-2-yl)-1H-pyrazol-3-yl]-6-[4-(hydroxymethyl)-1-piperidyl]pyridine-3-carboxamide], more than 1000 nM; for `O=C(Nc1cc(-c2nc3cc(Br)ccc3[nH]2)[nH]n1)c1ccc(N2CCC(O)CC2)nc1` [Compound A-90, N-[5-(5-bromo-1H-benzimidazol-2-yl)-1H-pyrazol-3-yl]-6-(4-hydroxy-1-piperidyl)pyridine-3-carboxamide], more than 1000 nM.
For `O=C(Nc1cc(-c2nc3cc(Br)ccc3[nH]2)[nH]n1)c1ccc(N2CCOCC2)nc1` [Compound A-91, N-[5-(5-bromo-1H-benzimidazol-2-yl)-1H-pyrazol-3-yl]-6-morpholino-pyridine-3-carboxamide] the value was more than 1000 nM; for `COc1ccc(Nc2nccc(-c3nc4ccccc4[nH]3)n2)cc1Cl` [Compound A-92, 4-(1H-benzimidazol-2-yl)-N-(3-chloro-4-methoxy-phenyl)pyrimidin-2-amine], more than 1000 nM.
On to `COCCSc1ccc(C(=O)Nc2cc(-c3nc4ccccc4[nH]3)[nH]n2)cc1Cl` [Compound A-93, N-[5-(1H-benzimidazol-2-yl)-1H-pyrazol-3-yl]-3-chloro-4-(2-methoxyethylsulfanyl)benzamide], for which the IC50 was less than 100 nM.
The result for `COCCOc1ccc(C(=O)Nc2cc(-c3nc4ccccc4[nH]3)[nH]n2)cc1C` [Compound A-94, N-[5-(1H-benzimidazol-2-yl)-1H-pyrazol-3-yl]-4-(2-methoxyethoxy)-3-methyl-benzamide] reads less than 100 nM.
For `Cn1nc(NC(=O)c2ccc(N3CCOCC3)cc2)cc1-c1nc2ccccc2[nH]1` [Compound A-95, N-[5-(1H-benzimidazol-2-yl)-1-methyl-pyrazol-3-yl]-4-morpholino-benzamide] the value was 100 to 300 nM.
The result for `Cn1nc(NC(=O)c2ccc(N3CCC(CO)CC3)nc2)cc1-c1nc2ccccc2[nH]1` [Compound A-96, N-[5-(1H-benzimidazol-2-yl)-1-methyl-pyrazol-3-yl]-6-[4-(hydroxy-methyl)-1-piperidyl]pyridine-3-carboxamide] reads less than 100 nM; that for `COC1CN(c2ccc(C(=O)Nc3cc(-c4nc5ccccc5[nH]4)n(C)n3)cn2)C1` [Compound A-97, N-[5-(1H-benzimidazol-2-yl)-1-methyl-pyrazol-3-yl]-6-(3-methoxyazetidin-1-yl)pyridine-3-carboxamide], 100 to 300 nM; that for `Cc1ccc2[nH]c(-c3cc(NC(=O)c4ccc(N5CCC(CO)CC5)nc4)n[nH]3)nc2c1` [Compound A-98, 6-[4-(hydroxymethyl)-1-piperidyl]-N-[5-(5-methyl-1H-benzimidazol-2-yl)-1H-pyrazol-3-yl]pyridine-3-carboxamide], less than 100 nM.
Take `Cc1ccc2[nH]c(-c3cc(NC(=O)c4ccc(N5CCC(O)CC5)nc4)n[nH]3)nc2c1` [Compound A-99, 6-(4-hydroxy-1-piperidyl)-N-[5-(5-methyl-1H-benzimidazol-2-yl)-1H-pyrazol-3-yl]pyridine-3-carboxamide]: the IC50 fell in the range of 100 to 300 nM.
On to `Cc1ccc2[nH]c(-c3cc(NC(=O)c4ccc(N5CCOCC5)nc4)n[nH]3)nc2c1` [Compound A-100, N-[5-(5-methyl-1H-benzimidazol-2-yl)-1H-pyrazol-3-yl]-6-morpholino-pyridine-3-carboxamide], for which the IC50 fell in the range of 100 to 300 nM.
The result for `O=C(Nc1cc(-c2nc3cc(C(F)(F)F)ccc3[nH]2)[nH]n1)c1ccc(N2CCC(CO)CC2)nc1` [Compound A-101, 6-[4-(hydroxymethyl)-1-piperidyl]-N-[5-[5-(trifluoromethyl)-1H-benzimidazol-2-yl]-1H-pyrazol-3-yl]pyridine-3-carboxamide] reads more than 1000 nM; that for `O=C(Nc1cc(-c2nc3cc(C(F)(F)F)ccc3[nH]2)[nH]n1)c1ccc(N2CCOCC2)nc1` [Compound A-102, 6-morpholino-N-[5-[5-(trifluoromethyl)-1H-benzimidazol-2-yl]-1H-pyrazol-3-yl]pyridine-3-carboxamide], more than 1000 nM; that for `COCCOc1ccc(C(=O)Nc2cc(-c3nc4ccccc4[nH]3)[nH]n2)cc1F` [Compound A-103, N-[5-(1H-benzimidazol-2-yl)-1H-pyrazol-3-yl]-3-fluoro-4-(2-methoxy-ethoxy)benzamide], less than 100 nM.
The result for `COCCOc1ccc(C(=O)Nc2cc(-c3nc4ccccc4[nH]3)[nH]n2)cc1C(F)(F)F` [Compound A-104, N-[5-(1H-benzimidazol-2-yl)-1H-pyrazol-3-yl]-4-(2-methoxyethoxy)-3-(trifluoromethyl)benzamide] reads less than 100 nM.
For `O=C(Nc1cc(-c2nc3cc(C(F)(F)F)ccc3[nH]2)[nH]n1)c1ccc(N2CCC(O)CC2)nc1` [Compound A-105, 6-(4-hydroxy-1-piperidyl)-N-[5-[5-(trifluoromethyl)-1H-benzimidazol-2-yl]-1H-pyrazol-3-yl]pyridine-3-carboxamide] the value was more than 1000 nM; for `COc1ccc(C(=O)Nc2cc(-c3nc4ccc(OC)c(F)c4[nH]3)[nH]n2)cc1Cl` [Compound A-106, 3-chloro-N-[5-(7-fluoro-6-methoxy-1H-benzimidazol-2-yl)-1H-pyrazol-3-yl]-4-methoxy-benzamide], 100 to 300 nM; for `O=C(Nc1cc(-c2nc3cc(OC(F)(F)F)ccc3[nH]2)[nH]n1)c1ccc(N2CCOCC2)nc1` [Compound A-107, 6-morpholino-N-[5-[5-(trifluoromethoxy)-1H-benzimidazol-2-yl]-1H-pyrazol-3-yl]pyridine-3-carboxamide], more than 1000 nM.
In turn, `O=C(Nc1cc(-c2nc3cc(OC(F)(F)F)ccc3[nH]2)[nH]n1)c1ccc(N2CCC(O)CC2)nc1` [Compound A-108, 6-(4-hydroxy-1-piperidyl)-N-[5-[5-(trifluoromethoxy)-1H-benzimidazol-2-yl]-1H-pyrazol-3-yl]pyridine-3-carboxamide] displayed an IC50 of more than 1000 nM.
The result for `COc1ccc2[nH]c(-c3cc(NC(=O)c4ccc(N5CCC(CO)CC5)nc4)n[nH]3)nc2c1` [Compound A-109, 6-[4-(hydroxymethyl)-1-piperidyl]-N-[5-(5-methoxy-1H-benzimidazol-2-yl)-1H-pyrazol-3-yl]pyridine-3-carboxamide] reads less than 100 nM; that for `COc1ccc2[nH]c(-c3cc(NC(=O)c4ccc(N5CCOCC5)nc4)n[nH]3)nc2c1` [Compound A-111, N-[5-(5-methoxy-1H-benzimidazol-2-yl)-1H-pyrazol-3-yl]-6-morpholino-pyridine-3-carboxamide], more than 1000 nM; that for `COc1ccc(C(=O)Nc2cc(-c3cn4ccccc4n3)[nH]n2)cc1Cl` [Compound A-112, 3-chloro-N-(5-imidazo[1,2-a]pyridin-2-yl-1H-pyrazol-3-yl)-4-methoxy-benzamide], 300 to 1000 nM.
The result for `Cc1cc(C(=O)Nc2cc(-c3nc4ccccc4[nH]3)[nH]n2)ccc1OCCO` [Compound A-113, N-[5-(1H-benzimidazol-2-yl)-1H-pyrazol-3-yl]-4-(2-hydroxyethoxy)-3-methyl-benzamide] reads less than 100 nM.
